Test system: Glucokinase known as hexokinase IV (human GK isoform 1, pancreas form and human GK isoform 2, liver form)
Assay: Glucokinase enzymatic activity assay (G6PDH-coupled, NADH absorbance at 340 nm)
Format: biochemical
Details: 5 mM glucose, 1 mM ATP, 37 nM GK, 10 min at room temperature
Experimental: Glucokinase known as hexokinase IV (human GK isoform 1, pancreas form and human GK isoform 2, liver form) was cloned into an expression vector pET15 fx (Novagen Co.), transformed to E. coli BL21 (DE3) (Invitrogen Co.) strain, expressed, and purified using a nickel column. Then, the glucokinase obtained from dialysis was used in the following assay.
Glucokinase assay was performed by measuring absorbance according to the conventional manner. Briefly speaking, glucokinase converts the substrate glucose to glucose-6-phosphate under certain conditions, and glucose-6-phosphate dehydrogenase irreversibly converts glucose-6-phosphate to gluconate-6-phosphate. During this procedure, NADH is formed, and its absorbance is measured to calculate the enzymatic activity.
In the measurement of the enzymatic activity, each compound was diluted by two-fold from the maximum to the minimum concentrations, and 2 μl of each solution was added to 96 well UV plate (BD bioscience). 60 μl of the first mixture (final concentrations 25 mM Hepes, 25 mM KCl, 2 mM MgCl2, 1 mM DTT) was added, and thoroughly mixed. 38 μl of the enzyme mixture (final concentrations 1 mM ATP, 1 mM NAD, 5 mM glucose, 0.85U G6PDH, 37 nM GK) was added (final volume 100 μl), and the mixture was reacted for 10 min at room temperature. The absorbance of NADH was measured at 340 nm using a UV spectrometer (Molecular Device).
The enzyme activating abilities of the compounds according to the present invention are represented as AC1.5 (the compound concentration at which the enzymatic activity is increased by 1.5 times, nM), which is in the range of 0.001 uM to 30 uM or less, preferably 0.001 uM to 10 uM, more preferably 0.001 uM to 1 uM.

`COc1cc(NC2CCCC2)c2[nH]c(C3=N[C@H](CC(=O)N4CCOCC4)CS3)cc2c1` [Example 88, 2-[(R)-2-(7-cyclopentylamino-5-methoxy-1H-indol-2-yl)-4,5-dihydro-thiazol-4-yl]-1-morpholin-4-yl-ethanone] was tested. Which “AC1.5 (the compound concentration at which the enzymatic activity is increased by 1.5 times)” value did it give?
The value was 19 nM.

With `CN(C)C1CCN(C(=O)C[C@@H]2CSC(c3cc4cc(Cl)cc(NC5CCCC5)c4[nH]3)=N2)C1` (stereo partly drawn) [Example 79, 2-[(R)-2-(5-chloro-7-cyclopentylamino-1H-indol-2-yl)-4,5-dihydro-thiazol-4-yl]-1-(3-dimethylamino-pyrrolidin-1-yl)-ethanone] as the compound, how does the “AC1.5 (the compound concentration at which the enzymatic activity is increased by 1.5 times)” value read?
Its value is 19 nM.

How did the “AC1.5 (the compound concentration at which the enzymatic activity is increased by 1.5 times)” value turn out when `Clc1cc(NC2CCCC2)c2[nH]c(C3=N[C@H](CCn4cccn4)CS3)cc2c1` [Example 106, {5-chloro-2-[(R)-4-(2-pyrazol-1-yl-ethyl)-4,5-dihydro-thiazol-2-yl]-1H-indol-7-yl}-cyclopentyl-amine] was run?
The value was 14 nM.

For `CN(C)C(=O)C[C@@H]1CSC(c2cc3cc(Cl)cc(NC4CCCC4)c3[nH]2)=N1` [Example 77, 2-[(R)-2-(5-chloro-7-cyclopentylamino-1H-indol-2-yl)-4,5-dihydro-thiazol-4-yl]-N,N-dimethyl-acetamide], which “AC1.5 (the compound concentration at which the enzymatic activity is increased by 1.5 times)” value is on record?
Its value is 27 nM.

For `Clc1cc(NC2CCOCC2)c2[nH]c(C3=N[C@H](CCN4CCN(c5ncccn5)CC4)CS3)cc2c1` [Example 123, (5-chloro-2-{(R)-4-[2-(4-pyrimidin-2-yl-piperazin-1-yl)-ethyl]-4,5-dihydro-thiazol-2-yl}-1H-indol-7-yl)-(tetrahydro-pyran-4-yl)-amine], which “AC1.5 (the compound concentration at which the enzymatic activity is increased by 1.5 times)” value is on record?
The value was 62 nM.

Which “AC1.5 (the compound concentration at which the enzymatic activity is increased by 1.5 times)” value does the source give for `c1cc(NC2CCCC2)c2[nH]c(C3=N[C@H](CCN4CCCCC4)CS3)cc2c1` [Example 144, cyclopentyl-{2-[(R)-4-(2-piperidin-1-yl-ethyl)-4,5-dihydro-thiazol-2-yl]-1H-indol-7-yl}-amine] here?
The value was 122 nM.

How did the “AC1.5 (the compound concentration at which the enzymatic activity is increased by 1.5 times)” value turn out when `CN1CCN(C(=O)C[C@@H]2CSC(c3cc4cc(Cl)cc(NC5CCCC5)c4[nH]3)=N2)CC1` [Example 78, 2-[(R)-2-(5-chloro-7-cyclopentylamino-1H-indol-2-yl)-4,5-dihydro-thiazol-4-yl]-1-(4-methyl-piperazin-1-yl)-ethanone] was run?
The value was 25 nM.

With `CN1CCN(C(=O)C[C@@H]2CSC(c3cc4cc(F)cc(NC5CCCC5)c4[nH]3)=N2)CC1` [Example 84, 2-[(R)-2-(7-cyclopentylamino-5-fluoro-1H-indol-2-yl)-4,5-dihydro-thiazol-4-yl]-1-(4-methyl-piperazin-1-yl)-ethanone] as the compound, how does the “AC1.5 (the compound concentration at which the enzymatic activity is increased by 1.5 times)” value read?
The value was 27 nM.

Which “AC1.5 (the compound concentration at which the enzymatic activity is increased by 1.5 times)” value does the source give for `O=C1CN(CC[C@@H]2CSC(c3cc4cc(F)cc(NC5CCOCC5)c4[nH]3)=N2)CCN1` [Example 139, 4-(2-{(R)-2-[5-fluoro-7-(tetrahydro-pyran-4-ylamino)-1H-indol-2-yl]-4,5-dihydro-thiazol-4-yl}-ethyl)-piperazin-2-one] here?
The value was 38 nM.

For `OC[C@@H]1CSC(c2cc3cc(Oc4cccnc4)cc(NC4CCCC4)c3[nH]2)=N1` [Example 13, {(R)-2-[7-cyclopentylamino-5-(pyridin-3-yloxy)-1H-indol-2-yl]-4,5-dihydro-thiazol-4-yl}-methanol], which “AC1.5 (the compound concentration at which the enzymatic activity is increased by 1.5 times)” value is on record?
The value was 12 nM.

For `OCC[C@@H]1CSC(c2cc3cccc(NC4CCOCC4)c3[nH]2)=N1` [Example 46, 2-{(R)-2-[7-(tetrahydro-pyran-4-ylamino)-1H-indol-2-yl]-4,5-dihydro-thiazol-4-yl}-ethanol], which “AC1.5 (the compound concentration at which the enzymatic activity is increased by 1.5 times)” value is on record?
Its value is 96 nM.

How did the “AC1.5 (the compound concentration at which the enzymatic activity is increased by 1.5 times)” value turn out when `OC1CCN(CC[C@@H]2CSC(c3cc4cc(Cl)cc(NC5CCCC5)c4[nH]3)=N2)CC1` [Example 101, 1-{2-[(R)-2-(5-chloro-7-cyclopentylamino-1H-indol-2-yl)-4,5-dihydro-thiazol-4-yl]-ethyl}-piperidin-4-ol] was run?
The value was 10 nM.

`O=C(O)C[C@@H]1CSC(c2cc3cc(Cl)cc(NC4CCOCC4)c3[nH]2)=N1` [Example 31, {(R)-2-[5-chloro-7-(tetrahydro-pyran-4-ylamino)-1H-indol-2-yl]-4,5-dihydro-thiazol-4-yl}-acetic acid] was tested. Which “AC1.5 (the compound concentration at which the enzymatic activity is increased by 1.5 times)” value did it give?
Its value is 16 nM.

`CS(=O)(=O)CC[C@@H]1CSC(c2cc3cc(F)cc(NC4CCCC4)c3[nH]2)=N1` [Example 132, cyclopentyl-{5-fluoro-2-[(R)-4-(2-methanesulfonyl-ethyl)-4,5-dihydro-thiazol-2-yl]-1H-indol-7-yl}-amine] was tested. Which “AC1.5 (the compound concentration at which the enzymatic activity is increased by 1.5 times)” value did it give?
The value was 13 nM.

`O=C(O)CC[C@@H]1CSC(c2cc3cc(Cl)cc(NC4CCOCC4)c3[nH]2)=N1` [Example 151, 3-{(R)-2-[5-chloro-7-(tetrahydro-pyran-4-ylamino)-1H-indol-2-yl]-4,5-dihydro-thiazol-4-yl}-propionic acid] was tested. Which “AC1.5 (the compound concentration at which the enzymatic activity is increased by 1.5 times)” value did it give?
Its value is 14 nM.

For `Cc1cc(NC2CCOCC2)c2[nH]c(C3=N[C@H](CC(=O)O)CS3)cc2c1` [Example 62, {(R)-2-[5-methyl-7-(tetrahydro-pyran-4-ylamino)-1H-indol-2-yl]-4,5-dihydro-thiazol-4-yl}-acetic acid], which “AC1.5 (the compound concentration at which the enzymatic activity is increased by 1.5 times)” value is on record?
The value was 36 nM.

How did the “AC1.5 (the compound concentration at which the enzymatic activity is increased by 1.5 times)” value turn out when `CC(=O)N1CCN(CC[C@@H]2CSC(c3cc4cc(Cl)cc(NC5CCCC5)c4[nH]3)=N2)CC1` [Example 97, 1-(4-{2-[(R)-2-(5-chloro-7-cyclopentylamino-1H-indol-2-yl)-4,5-dihydro-thiazol-4-yl]-ethyl}-piperazin-1-yl)-ethanone] was run?
The value was 6 nM.

For `Cc1cc(NC2CCC(=O)CC2)c2[nH]c(C3=N[C@H](CC(=O)O)CS3)cc2c1` [Example 63, {(R)-2-[5-methyl-7-(4-oxo-cyclohexylamino)-1H-indol-2-yl]-4,5-dihydro-thiazol-4-yl}-acetic acid], which “AC1.5 (the compound concentration at which the enzymatic activity is increased by 1.5 times)” value is on record?
The value was 119 nM.

Which “AC1.5 (the compound concentration at which the enzymatic activity is increased by 1.5 times)” value does the source give for `O=C(O)[C@@H]1CCCN1CC[C@@H]1CSC(c2cc3cc(Cl)cc(NC4CCCC4)c3[nH]2)=N1` [Example 107, (S)-1-{2-[(R)-2-(5-chloro-7-cyclopentylamino-1H-indol-2-yl)-4,5-dihydro-thiazol-4-yl]-ethyl}-pyrrolidine-2-carboxylic acid] here?
The value was 63 nM.

For `CS(=O)(=O)CC[C@@H]1CSC(c2cc3cccc(NC4CCOCC4)c3[nH]2)=N1` [Example 145, {2-[(R)-4-(2-methanesulfonyl-ethyl)-4,5-dihydro-thiazol-2-yl]-1H-indol-7-yl}-(tetrahydro-pyran-4-yl)-amine], which “AC1.5 (the compound concentration at which the enzymatic activity is increased by 1.5 times)” value is on record?
The value was 138 nM.

With `c1ccc(Oc2cccc3cc(C4=N[C@H](CCN5CCOCC5)CS4)[nH]c23)cc1` [Example 176, 2-[(R)-4-(2-morpholin-4-yl-ethyl)-4,5-dihydro-thiazol-2-yl]-7-phenoxy-1H-indole] as the compound, how does the “AC1.5 (the compound concentration at which the enzymatic activity is increased by 1.5 times)” value read?
The value was 178 nM.
